{"source": "patent US20130190275A1", "about": "“COMBINED THERAPIES OF ANTIPSYCHOTIC DRUGS AND TETRACYCLINES IN THE TREATMENT OF PSYCHIATRIC DISORDERS” (MOR RESEARCH APPLICATIONS LTD., priority 2006, published 2013)", "test_system": "MK801 treated rats", "experiment": "Pre-Pulse Inhibition (PPI) paradigm, MK801 animal model", "assay_type": "in vivo, rat", "method": "Acoustic Startle Response (ASR) and Pre-Pulse Inhibition (PPI): Both experimental paradigms were performed in a room that was adjacent to the laboratory facilities and the animal stall and that was not used for other experiments. The animals were tested in squad of two with startle chambers counterbalanced across the different experimental groups. Startle response and prepulse inhibition were measured using two ventilated startle chambers (SR-LAB system, San Diego Instruments, San Diego, Calif.). Each chamber consisted of a Plexiglas cylinder resting on a platform inside a sound-attenuated, ventilated chamber. A high-frequency loudspeaker inside the chamber produced both a continuous broadband background noise of 70 dB and the various acoustic stimuli. Movement inside the tube was detected by a piezoelectric accelerometer below the frame. The amplitude of the whole body startle to an acoustic pulse was defined as the average of 100 one-msec accelerometer readings collected from pulse onset. These signals were then digitized and stored by a computer. Sound levels within each test chamber were measured routinely using a sound level meter (Radio Shack) to ensure consistent presentation. The SR-LAB calibration unit was used routinely to ensure consistent stabilimeter sensitivity between test chambers and over time (Swerdlow and Geyer, 1998, Schizophrenia Bulletin, 24(2), 285-301).\nFifteen minutes before the behavioral procedures conducted at the fourth day, the subject was injected i.p. with an 0.1 mg/kg dose of MK801 or saline, for a total volume of 1 ml per kg of body weight. Next, the subjects passed the three behavioral procedures, described in the following paragraphs.\nASR and PPI were measured using two startle chambers, with each chamber consisting of a Plexiglas cylinder resting on a platform inside a sound-attenuated, ventilated chamber (see also materials section). The animals were tested in pairs with startle chambers counterbalanced across the different experimental groups.\nPPI of the startle response was used as a measure of sensorimotor gating, with the startle chambers used to assess the ability of prepulse stimuli to block the startle response. […]\nPre-Pulse Inhibition (PPI): Startle magnitude is expressed in all the procedures as arbitrary units. Percent PPI (% PPI) was calculated as the mean startle magnitude to stimulus-alone minus the mean startle magnitude to prepulse-stimulus trials, all divided by the mean stimulus-alone trials, and multiplied by 100. The overall mean % PPI was calculated for the four prepulse intensities (72, […], 80, 84 dB). Results were analyzed by two-way ANOVA with a between-subject measure of ‘group’ (difference the treatment groups) and ‘prepulse intensity’ (72, 76, 80, 84 dB).", "data": [{"compound": "CN(C)c1ccc(O)c2c1C[C@H]1C[C@H]3[C@H](N(C)C)C(O)=C(C(N)=O)C(=O)[C@@]3(O)C(O)=C1C2=O", "note": "[minocycline]", "values": [{"measurement": "percent of PPI (% PPI)", "setting": "drug+MK801 0.1 mg/kg i.p., minocycline 35 mg/kg x 3 days pretreatment, haloperidol 0.4 mg/kg i.p.", "value": "able to reverse the deficits caused by the MK801 treatment"}, {"measurement": "percent of PPI (% PPI)", "setting": "minocycline alone (no MK801) vs saline", "value": "no statistically significant differences"}]}]}
